Measurements: article PMC7156458, “Synthetic biology based construction of biological activity-related library of fungal decalin-containing diterpenoid pyrones” (Nature Communications, 2020)
Where two headings read alike, the source gives them in different places.

Experiments:
Format in all cases: cell-based
[1] = cytotoxicity in Drosophila DL1 cells; conditions: Drosophila, DL1 cells (embryonic macrophage-derived), DL1 cells
Method: (§1) We screened the DDPs on the Drosophila assay system for cytotoxicity, inhibitory activity of innate immune signalling and insecticidal activity. The cytotoxicity of the DDPs was evaluated using two cell lines, embryonic macrophage-derived DL1 cells[58]–[60] and larval blood cell-derived l(2)mbn cells, and their IC50 values are listed in Supplementary Table 23.

DL1 cells = assay: cytotoxicity in Drosophila DL1 cells; conditions: DL1 cells; for IC50: cytotoxicity; for % viability, viability 1: replicate 1, relative to DMSO 1%; for % viability, viability 2: replicate 2, relative to DMSO 1%
Method: as §1

[2] = cytotoxicity in Drosophila l(2)mbn cells; conditions: Drosophila, l(2)mbn cells (larval blood cell-derived)
Method: as §1

l(2)mbn cells = assay: cytotoxicity in Drosophila l(2)mbn cells; conditions: for Luminescence Raw1: replicate 1; for Luminescence Raw2: replicate 2; for IC50: cytotoxicity; for % viability, viability 1: replicate 1, relative to DMSO 1%; for % viability, viability 2: replicate 2, relative to DMSO 1%
Method: as §1

[3] = test system: human immunodeficiency virus-1 (HIV-1); assay: anti-HIV MAGI assay; conditions: anti-HIV
Text: We examined the inhibitory activities of DDPs against various species of bacteria (both gram-negative and gram-positive bacteria), fungi and viruses. […] In contrast, preliminary screening of the DDPs for anti-viral agents with hepatitis B virus (HBV), measles virus (MV), Epstein-Barr virus (EBV), herpes simplex virus (HSV) and human immunodeficiency virus-1 (HIV-1) indicated their selective inhibition of HIV.

[4] = replicate 1, relative to DMSO 1%, read-out: % viability, viability 1
[5] = replicate 2, relative to DMSO 1%, read-out: % viability, viability 2
[6] = Drosophila melanogaster, average of two replicates, read-out: IC50 Average
[7] = Drosophila melanogaster, average±SEM, read-out: IC50
[8] = Drosophila melanogaster, replicate 1, read-out: IC50 (1)
[9] = Drosophila melanogaster, replicate 2, read-out: IC50 (2)
[10] = average of two replicates, read-out: IC50 Average
[11] = replicate 1, read-out: IC50 (1)
[12] = replicate 2, read-out: IC50 (2)

Molecule `C=C1CC[C@@H]2[C@](C)(CC[C@H]3O[C@H](C=C(C)C)C[C@@]23C)[C@@H]1Cc1c(O)c(C)c(C)oc1=O` [Compound 10, higginsianin A] has a viability at 0.04 µM [1, 4] of 82.7%, a viability at 0.04 µM [1, 5] of 85.6% and a viability at 0.2 µM [1, 4] of 36.2%. It also gave a viability at 0.2 µM [1, 5] of 35%, a viability at 1 µM [1, 4] of 7.23% and a viability at 1 µM [1, 5] of 6.51%. For the same molecule, the viability at 4 µM [1, 4] was 4.76%, the viability at 4 µM [1, 5] was 6.46% and the viability at 10 µM [1, 4] was 7.6%. It also gave a viability at 10 µM [1, 5] of 6.95%, a viability at 20 µM [1, 4] of 5.78% and a viability at 20 µM [1, 5] of 5.81%. The “Luminescence Raw1” value (DL1 cells; 0.04 µM, replicate 1) was 1703467, the “Luminescence Raw2” value (DL1 cells; 0.04 µM, replicate 2) was 1762974 and the “Luminescence Raw1” value (DL1 cells; 0.2 µM, replicate 1) was 745666. The “Luminescence Raw2” value (DL1 cells; 0.2 µM, replicate 2) was 721146, the “Luminescence Raw1” value (DL1 cells; 1 µM, replicate 1) was 148910 and the “Luminescence Raw2” value (DL1 cells; 1 µM, replicate 2) was 134127. For the same molecule, the “Luminescence Raw1” value (DL1 cells; 4 µM, replicate 1) was 98071, the “Luminescence Raw2” value (DL1 cells; 4 µM, replicate 2) was 133046 and the “Luminescence Raw1” value (DL1 cells; 10 µM, replicate 1) was 156482. The “Luminescence Raw2” value (DL1 cells; 10 µM, replicate 2) was 143141, the “Luminescence Raw1” value (DL1 cells; 20 µM, replicate 1) was 118984 and the “Luminescence Raw2” value (DL1 cells; 20 µM, replicate 2) was 119705. For the same molecule, the IC50 (DL1 cells; [6]) was 133 nM, the IC50 (DL1 cells; [7]) was 130 ± 10 nM and the IC50 (DL1 cells; [8]) was 132 nM. For the same molecule, the IC50 (DL1 cells; [9]) was 133 nM, the viability at 0.04 µM [2, 4] was 113% and the viability at 0.04 µM [2, 5] was 127%. It also gave a viability at 0.2 µM [2, 4] of 108%, a viability at 0.2 µM [2, 5] of 125% and a viability at 1 µM [2, 4] of 20.3%. The viability at 1 µM [2, 5] was 41.9%, the viability at 4 µM [2, 4] was 7.39% and the viability at 4 µM [2, 5] was 9.05%. It also gave a viability at 10 µM [2, 4] of 6.87%, a viability at 10 µM [2, 5] of 7.85% and a viability at 20 µM [2, 4] of 5.83%. For the same molecule, the viability at 20 µM [2, 5] was 6.46%, the “Luminescence Raw1” value (l(2)mbn cells; 0.04 µM) was 2899849 and the “Luminescence Raw2” value (l(2)mbn cells; 0.04 µM) was 3256235. For the same molecule, the “Luminescence Raw1” value (l(2)mbn cells; 0.2 µM) was 2762422, the “Luminescence Raw2” value (l(2)mbn cells; 0.2 µM) was 3200684 and the “Luminescence Raw1” value (l(2)mbn cells; 1 µM) was 521407. For the same molecule, the “Luminescence Raw2” value (l(2)mbn cells; 1 µM) was 1075282, the “Luminescence Raw1” value (l(2)mbn cells; 4 µM) was 189680 and the “Luminescence Raw2” value (l(2)mbn cells; 4 µM) was 232227. For the same molecule, the “Luminescence Raw1” value (l(2)mbn cells; 10 µM) was 176340, the “Luminescence Raw2” value (l(2)mbn cells; 10 µM) was 201579 and the “Luminescence Raw1” value (l(2)mbn cells; 20 µM) was 149658. The “Luminescence Raw2” value (l(2)mbn cells; 20 µM) was 165883, the IC50 (l(2)mbn cells; [6]) was 630 nM and the IC50 (l(2)mbn cells; [7]) was 630 ± 100 nM. It also gave an IC50 (l(2)mbn cells; [8]) of 529 nM, an IC50 (l(2)mbn cells; [9]) of 734 nM and an EC50 ([3]; Human immunodeficiency virus 1, MAGI, MAGI assay, read-out: EC50) of less than 200 nM. For the same molecule, the EC50 ([3]; Human immunodeficiency virus 1, MAGI, average of numeric determinations, read-out: Avg. EC50) was 53.2 nM.
Work on `C=C1CCC2C(C)(CCC=C(C)C)C(O)CCC2(C)C1Cc1c(O)c(C)c(C)oc1=O` (stereo not shown) [Compound 9, higginsianin B] yielded a viability at 0.04 µM [1, 5] of 202%, a viability at 0.2 µM [1, 4] of 190% and a viability at 4 µM [1, 4] of 20.9%. For the same molecule, the viability at 4 µM [1, 5] was 22.6%, the viability at 10 µM [1, 4] was 20.4% and the viability at 10 µM [1, 5] was 21.1%. For the same molecule, the viability at 20 µM [1, 4] was 19.2%, the viability at 20 µM [1, 5] was 18% and the “Luminescence Raw1” value (DL1 cells; 0.04 µM, replicate 1) was 3124696. For the same molecule, the “% viability, viability 1” value (DL1 cells; 0.04 µM) was 227.835%, the “Luminescence Raw2” value (DL1 cells; 0.04 µM, replicate 2) was 2770120 and the “Luminescence Raw1” value (DL1 cells; 0.2 µM, replicate 1) was 2602758. For the same molecule, the “Luminescence Raw2” value (DL1 cells; 0.2 µM, replicate 2) was 2435040, the “% viability, viability 2” value (DL1 cells; 0.2 µM) was 177.549% and the “Luminescence Raw1” value (DL1 cells; 1 µM, replicate 1) was 371891. For the same molecule, the “% viability, viability 1” value (DL1 cells; 1 µM) was 27.1162%, the “Luminescence Raw2” value (DL1 cells; 1 µM, replicate 2) was 463117 and the “% viability, viability 2” value (DL1 cells; 1 µM) was 33.7678%. For the same molecule, the “Luminescence Raw1” value (DL1 cells; 4 µM, replicate 1) was 286075, the “Luminescence Raw2” value (DL1 cells; 4 µM, replicate 2) was 310594 and the “Luminescence Raw1” value (DL1 cells; 10 µM, replicate 1) was 279225. For the same molecule, the “Luminescence Raw2” value (DL1 cells; 10 µM, replicate 2) was 288960, the “Luminescence Raw1” value (DL1 cells; 20 µM, replicate 1) was 263360 and the “Luminescence Raw2” value (DL1 cells; 20 µM, replicate 2) was 246413. For the same molecule, the IC50 (DL1 cells; [10]) was 361 nM, the IC50 (DL1 cells; average±SEM, read-out: IC50) was 360 ± 30 nM and the IC50 (DL1 cells; [11]) was 328 nM. For the same molecule, the IC50 (DL1 cells; [12]) was 394 nM, the viability at 0.04 µM [2, 4] was 90.8% and the viability at 0.04 µM [2, 5] was 91.3%. It also gave a viability at 0.2 µM [2, 4] of 92.2%, a viability at 0.2 µM [2, 5] of 95.4% and a viability at 1 µM [2, 4] of 85%. For the same molecule, the viability at 1 µM [2, 5] was 84.3%, the viability at 20 µM [2, 5] was 3.01% and the “Luminescence Raw1” value (l(2)mbn cells; 0.04 µM) was 5700406. The “Luminescence Raw2” value (l(2)mbn cells; 0.04 µM) was 5730357, the “Luminescence Raw1” value (l(2)mbn cells; 0.2 µM) was 5787371 and the “Luminescence Raw2” value (l(2)mbn cells; 0.2 µM) was 5991618. The “Luminescence Raw1” value (l(2)mbn cells; 1 µM) was 5334874, the “Luminescence Raw2” value (l(2)mbn cells; 1 µM) was 5292296 and the “Luminescence Raw1” value (l(2)mbn cells; 4 µM) was 375575. The “% viability, viability 1” value (l(2)mbn cells; 4 µM) was 5.981%, the “Luminescence Raw2” value (l(2)mbn cells; 4 µM) was 295889 and the “% viability, viability 2” value (l(2)mbn cells; 4 µM) was 4.712%. The “Luminescence Raw1” value (l(2)mbn cells; 10 µM) was 141567, the “% viability, viability 1” value (l(2)mbn cells; 10 µM) was 2.255% and the “Luminescence Raw2” value (l(2)mbn cells; 10 µM) was 144091. The “% viability, viability 2” value (l(2)mbn cells; 10 µM) was 2.295%, the “Luminescence Raw1” value (l(2)mbn cells; 20 µM) was 140485 and the “% viability, viability 1” value (l(2)mbn cells; 20 µM) was 2.2373%. The “Luminescence Raw2” value (l(2)mbn cells; 20 µM) was 188801, the IC50 (l(2)mbn cells; [10]) was 1540 nM and the IC50 (l(2)mbn cells; average±SEM, read-out: IC50) was 1540 ± 10 nM. For the same molecule, the IC50 (l(2)mbn cells; [11]) was 1540 nM, the IC50 (l(2)mbn cells; [12]) was 1540 nM and the EC50 ([3]; single determinations, read-out: Efficacy (EC50)) was greater than 10000 nM.
